{"source": "PubChem BioAssay (NCI)", "note": "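Results reflect a 48-hour exposure of cells in 96-well plates to compound at five concentrations. GI50 = concentration required for 50% inhibition of growth. At the TGI there is no net growth.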", "data": [{"system": "T-47D breast", "assay": "DTP human tumour cell line panel, 48 h", "units": {"TGI": "µM", "GI50": "nM"}, "values": [{"smiles": "CC(C)(CC(=O)Nc1ccccc1)C(=O)O", "TGI": "> 100"}, {"smiles": "COc1cc([N+](=O)[O-])cc2c3c(n(C)c12)[C@@]1(C)CCC2c4ccc(OCc5ccccc5)cc4CCC2C1C3", "note": "(some centres undefined)", "GI50": 43100, "TGI": "> 100"}, {"smiles": "Nc1nc(Cl)c2ncn(Cc3ccc(C45CC6CC(CC(C6)C4)C5)c(O)c3)c2n1", "GI50": 3750, "TGI": 24.5}, {"smiles": "COc1cc(C2NC(=O)c3ccccc3N2)ccc1OCCCCCOc1c(OC)cc(C2=NOC(c3cc(OC)c(OC)c(OC)c3)C2)cc1OC", "note": "(centres undefined)", "GI50": 239, "TGI": "> 100"}, {"smiles": "O=C1c2cc(Cl)ccc2S(=O)(=O)c2c(NCCCNCCO)nc3ccccc3c21", "GI50": 1240, "TGI": 2.96}, {"smiles": "Cc1ccc2c(c1)[n+]([O-])c(N)n[n+]2[O-]", "TGI": "> 100"}]}, {"system": "UACC-257 melanoma", "assay": "DTP human tumour cell line panel, 48 h", "units": {"TGI": "µM", "GI50": "nM"}, "values": [{"smiles": "NC(CCC(=O)NC(CSSCCCCS(=O)O)C(=O)NCC(=O)O)C(=O)O", "note": "(centres undefined)", "TGI": "> 100"}, {"smiles": "C[C@@H]1OC(O)[C@@H](F)[C@H](O)[C@@H]1O", "note": "(some centres undefined)", "GI50": "> 100000", "TGI": "> 100"}, {"smiles": "COC12C=C(C)C(CC1)CC2C(=O)O", "note": "(centres undefined)", "TGI": "> 100"}, {"smiles": "OCC(O)CC[CH2][Sn]([Br])([c]1ccccc1)[c]1ccccc1", "note": "(centres undefined)", "GI50": "> 100000", "TGI": "> 100"}, {"smiles": "CCc1ccc(/C=C\\c2cc(OC)c(OC)c(OC)c2)cc1", "GI50": 80.2, "TGI": 72.1}, {"smiles": "O=c1c2cc([N+](=O)[O-])ccc2sc2ccsc12", "TGI": "> 100"}, {"smiles": "C=CCCCCCCCCC(=O)[O][Sn]([CH2]CCC)([CH2]CCC)[CH2]CCC", "GI50": 144, "TGI": 0.291}, {"smiles": "COc1ccc(C2=CC3CCC2C3)cc1", "note": "(centres undefined)", "TGI": "> 100"}, {"smiles": "COc1ccc(/C=C/CN(C)CCc2ccccc2)cc1OC", "TGI": "> 100"}, {"smiles": "[Cl-].[Dy+3].[O-]/N=C(\\c1ccccc1)c1ccccn1.[O-]/N=C(\\c1ccccc1)c1ccccn1.[O-]/N=C(\\c1ccccc1)c1ccccn1", "GI50": 24500, "TGI": 67.8}, {"smiles": "CC(C)(CC(=O)Nc1ccccc1)C(=O)O", "TGI": "> 100"}, {"smiles": "NC(=O)C(=O)N/N=C(\\CC1(O)C(=O)Nc2ccccc21)c1ccc2ccccc2c1", "note": "(centres undefined)", "TGI": "> 100"}, {"smiles": "Cc1cc2c(cc1C)[n+](=O)c(C(=O)C/C(=N/NC(=O)CC#N)C(=O)Nc1ccccc1C(F)(F)F)c(C)n2[O-]", "TGI": "> 100"}, {"smiles": "COc1cc([N+](=O)[O-])cc2c3c(n(C)c12)[C@@]1(C)CCC2c4ccc(OCc5ccccc5)cc4CCC2C1C3", "note": "(some centres undefined)", "GI50": 85600, "TGI": "> 100"}, {"smiles": "COC(=O)/C(=N/NC(=O)C[N+](C)(C)C)C(C(=O)OC)C(=O)C(=O)Nc1ccc(F)cc1", "note": "(centres undefined)", "TGI": "> 100"}, {"smiles": "O=C(c1ccccc1)c1nnc(C(=O)c2ccccc2)nn1", "TGI": "> 344"}, {"smiles": "Brc1cccc(C=NC23CC4CC(CC(C4)C2)C3)c1", "TGI": "> 100"}, {"smiles": "Nc1nc(Cl)c2ncn(Cc3ccc(C45CC6CC(CC(C6)C4)C5)c(O)c3)c2n1", "GI50": 578, "TGI": 4.86}, {"smiles": "CCC[CH2][Sn]([CH2]CCC)([O]C(=O)c1cccnc1SC)[O]C(=O)c1cccnc1SC", "GI50": 922, "TGI": 2.14}, {"smiles": "COc1cc(C2NC(=O)c3ccccc3N2)ccc1OCCCCCOc1c(OC)cc(C2=NOC(c3cc(OC)c(OC)c(OC)c3)C2)cc1OC", "note": "(centres undefined)", "GI50": 296, "TGI": 69.9}, {"smiles": "O=C1O[C@@H](c2ccc3c(c2)OCO3)C2C(=O)O[C@@H](c3ccc4c(c3)OCO4)C12", "note": "(some centres undefined)", "TGI": "> 100"}, {"smiles": "O=C1CCC(=O)N2CCCCN12", "TGI": "> 100"}, {"smiles": "CC(C)C(=O)NC(=S)Nc1ccc([N+](=O)[O-])cc1C#N", "TGI": "> 100"}, {"smiles": "C/C(CC(=O)Nc1cc(Cl)c(Cl)cc1Cl)=N\\NC(N)=O", "TGI": "> 100"}, {"smiles": "N#Cc1cc([N+](=O)[O-])ccc1NC(=O)C(=O)Nc1n[nH]c(N)n1", "TGI": "> 100"}, {"smiles": "CS(=O)(=O)c1ccc([C@H]2O[C@@H](CO)C[C@]2(O)c2ccc(S(C)(=O)=O)cc2)cc1", "GI50": "> 100000", "TGI": "> 100"}, {"smiles": "O=C(/C=C/c1c(O)ccc2ccccc12)c1cccc(O)c1", "TGI": "> 100"}, {"smiles": "CC1=NN(C(=O)Nc2ccccc2)C(=O)C2CCC(=O)N12", "note": "(centres undefined)", "TGI": "> 100"}, {"smiles": "COC(=O)C1Cc2c(n(Cc3ccccc3)c3ccccc23)C(CCC(=O)O)N1C(C)C", "note": "(centres undefined)", "TGI": "> 100"}, {"smiles": "O=C(O)CNS(=O)(=O)c1ccc(NCc2ccccc2)cc1", "TGI": "> 100"}, {"smiles": "O=C1c2cc(Cl)ccc2S(=O)(=O)c2c(NCCCNCCO)nc3ccccc3c21", "GI50": 1550, "TGI": 3.42}, {"smiles": "CC(C)(C)C1C=C(Sc2ccccc2)C(=O)O1", "note": "(centres undefined)", "TGI": "> 100"}, {"smiles": "CCC[CH2][Sn]1([CH2]CCC)[O]Cc2nc(C)ccc2[O]1", "GI50": 5600, "TGI": 20.2}, {"smiles": "Cc1ccc2c(c1)[n+]([O-])c(N)n[n+]2[O-]", "TGI": "> 100"}, {"smiles": "O=c1/c(=C/c2ccco2)sc2nc3ccccc3n12", "GI50": "> 100000", "TGI": "> 100"}, {"smiles": "O=C1CCC2(c3ccc(F)cc3)Nc3cc(Cl)ccc3N12", "note": "(centres undefined)", "TGI": "> 100"}, {"smiles": "C/C(CC(=O)Nc1ccc(C)cc1C)=N/N=C(N)N", "TGI": "> 100"}]}, {"system": "UACC-62 melanoma", "assay": "DTP human tumour cell line panel, 48 h", "units": {"TGI": "µM", "GI50": "µM"}, "values": [{"smiles": "COC(=O)c1c/c(=N\\NC(=O)CC(=O)Nc2ccccc2OC)c2ccccc2o1", "TGI": "> 100"}, {"smiles": "NC(CCC(=O)NC(CSSCCCCS(=O)O)C(=O)NCC(=O)O)C(=O)O", "note": "(centres undefined)", "TGI": "> 100"}, {"smiles": "C[C@@H]1OC(O)[C@@H](F)[C@H](O)[C@@H]1O", "note": "(some centres undefined)", "GI50": "> 100", "TGI": "> 100"}, {"smiles": "COC12C=C(C)C(CC1)CC2C(=O)O", "note": "(centres undefined)", "TGI": "> 100"}, {"smiles": "OCC(O)CC[CH2][Sn]([Br])([c]1ccccc1)[c]1ccccc1", "note": "(centres undefined)", "GI50": 65.8, "TGI": "> 100"}, {"smiles": "O=c1c2cc([N+](=O)[O-])ccc2sc2ccsc12", "TGI": "> 100"}, {"smiles": "C=CCCCCCCCCC(=O)[O][Sn]([CH2]CCC)([CH2]CCC)[CH2]CCC", "GI50": 0.168, "TGI": 0.349}, {"smiles": "COc1ccc(C2=CC3CCC2C3)cc1", "note": "(centres undefined)", "TGI": "> 100"}, {"smiles": "COc1ccc(/C=C/CN(C)CCc2ccccc2)cc1OC", "TGI": "> 100"}, {"smiles": "[Cl-].[Dy+3].[O-]/N=C(\\c1ccccc1)c1ccccn1.[O-]/N=C(\\c1ccccc1)c1ccccn1.[O-]/N=C(\\c1ccccc1)c1ccccn1", "GI50": 32.5, "TGI": "> 100"}, {"smiles": "CC(C)(CC(=O)Nc1ccccc1)C(=O)O", "TGI": "> 100"}, {"smiles": "NC(=O)C(=O)N/N=C(\\CC1(O)C(=O)Nc2ccccc21)c1ccc2ccccc2c1", "note": "(centres undefined)", "TGI": 77.9}, {"smiles": "Cc1cc2c(cc1C)[n+](=O)c(C(=O)C/C(=N/NC(=O)CC#N)C(=O)Nc1ccccc1C(F)(F)F)c(C)n2[O-]", "TGI": "> 100"}, {"smiles": "COc1cc([N+](=O)[O-])cc2c3c(n(C)c12)[C@@]1(C)CCC2c4ccc(OCc5ccccc5)cc4CCC2C1C3", "note": "(some centres undefined)", "GI50": "> 100", "TGI": "> 100"}, {"smiles": "COC(=O)/C(=N/NC(=O)C[N+](C)(C)C)C(C(=O)OC)C(=O)C(=O)Nc1ccc(F)cc1", "note": "(centres undefined)", "TGI": "> 100"}, {"smiles": "O=C(c1ccccc1)c1nnc(C(=O)c2ccccc2)nn1", "TGI": "> 344"}, {"smiles": "Brc1cccc(C=NC23CC4CC(CC(C4)C2)C3)c1", "TGI": "> 100"}, {"smiles": "Nc1nc(Cl)c2ncn(Cc3ccc(C45CC6CC(CC(C6)C4)C5)c(O)c3)c2n1", "GI50": 4.07, "TGI": 18.5}, {"smiles": "CCC(C)c1c(Cl)nc(Cl)nc1Cl", "note": "(centres undefined)", "TGI": 52.8}, {"smiles": "CCC[CH2][Sn]([CH2]CCC)([O]C(=O)c1cccnc1SC)[O]C(=O)c1cccnc1SC", "GI50": 0.791, "TGI": 2.04}, {"smiles": "COc1cc(C2NC(=O)c3ccccc3N2)ccc1OCCCCCOc1c(OC)cc(C2=NOC(c3cc(OC)c(OC)c(OC)c3)C2)cc1OC", "note": "(centres undefined)", "GI50": 0.506, "TGI": "> 100"}, {"smiles": "O=C1O[C@@H](c2ccc3c(c2)OCO3)C2C(=O)O[C@@H](c3ccc4c(c3)OCO4)C12", "note": "(some centres undefined)", "TGI": "> 100"}, {"smiles": "O=C1CCC(=O)N2CCCCN12", "TGI": "> 100"}, {"smiles": "CC(C)C(=O)NC(=S)Nc1ccc([N+](=O)[O-])cc1C#N", "TGI": "> 100"}, {"smiles": "C/C(CC(=O)Nc1cc(Cl)c(Cl)cc1Cl)=N\\NC(N)=O", "TGI": "> 100"}, {"smiles": "N#Cc1cc([N+](=O)[O-])ccc1NC(=O)C(=O)Nc1n[nH]c(N)n1", "TGI": "> 100"}, {"smiles": "CS(=O)(=O)c1ccc([C@H]2O[C@@H](CO)C[C@]2(O)c2ccc(S(C)(=O)=O)cc2)cc1", "GI50": "> 100", "TGI": "> 100"}, {"smiles": "O=C(/C=C/c1c(O)ccc2ccccc12)c1cccc(O)c1", "TGI": 69.1}, {"smiles": "CC1=NN(C(=O)Nc2ccccc2)C(=O)C2CCC(=O)N12", "note": "(centres undefined)", "TGI": "> 100"}, {"smiles": "COC(=O)C1Cc2c(n(Cc3ccccc3)c3ccccc23)C(CCC(=O)O)N1C(C)C", "note": "(centres undefined)", "TGI": "> 100"}, {"smiles": "O=C(O)CNS(=O)(=O)c1ccc(NCc2ccccc2)cc1", "TGI": "> 100"}, {"smiles": "O=C1c2cc(Cl)ccc2S(=O)(=O)c2c(NCCCNCCO)nc3ccccc3c21", "GI50": 1.61, "TGI": 3.35}, {"smiles": "CC(C)(C)C1C=C(Sc2ccccc2)C(=O)O1", "note": "(centres undefined)", "TGI": "> 100"}, {"smiles": "CCC[CH2][Sn]1([CH2]CCC)[O]Cc2nc(C)ccc2[O]1", "GI50": 2.06, "TGI": 4.57}, {"smiles": "O=c1/c(=C/c2ccco2)sc2nc3ccccc3n12", "GI50": "> 100", "TGI": "> 100"}, {"smiles": "O=C1CCC2(c3ccc(F)cc3)Nc3cc(Cl)ccc3N12", "note": "(centres undefined)", "TGI": "> 100"}, {"smiles": "C/C(CC(=O)Nc1ccc(C)cc1C)=N/N=C(N)N", "TGI": "> 100"}]}]}
